This is an account of results in ChEMBL document CHEMBL5344474, “Molecular editing of NSC-666719 enabling discovery of benzodithiazinedioxide-guanidines as anticancer agents” (RSC Med Chem, 2024).

Where only a bound is given, the exact number is not on record here.

A short description of series [1]: Selectivity index, ratio of IC50 for HEK293 cells to IC50 for human MDA-MB-231 cells. The note with it: HEK293 cells versus MDA-MB-231 cells.
In another series the test system is MDA-MB-231. The series is described as follows: Antiproliferative activity against human MDA-MB-231 cells incubated for 72 hrs by MTT assay. Conditions: MDA-MB-231, 72 h.
Series [2] is described as follows: Selectivity index, ratio of IC50 for HEK293 cells to IC50 for human HCT-116 cells. The note with it: HEK293 cells versus HCT-116 cells.
Another series has as its system MCF7. The series is described as follows: Antiproliferative activity against human MCF7 cells incubated for 72 hrs by MTT assay. Conditions: MCF7, 72 h. For orientation: Tetrazolium assays rely on reduction of a dye to a coloured formazan, in cell work by metabolically active cells.
The nature of series [3]: Selectivity index, ratio of IC50 for HEK293 cells to IC50 for human MCF7 cells. Conditions: HEK293 cells versus MCF7 cells.

Usually IC50 stands for the midpoint of a concentration-inhibition curve. A high value points to weaker potency in that assay. As to `Cc1cc(S(=O)(=O)Nc2nnc(Nc3ccccc3)[nH]2)c(S)cc1Cl`, the selectivity ratio in series [1], in series [2] and in series [3] was over 65 throughout. Also, the figures for the half-maximal inhibitory concentration (IC50) in the series on MDA-MB-231 and with MCF7 were 7 µM and 6.3 µM, respectively.

As for `Cc1cc(S(=O)(=O)Nc2nc(Nc3ccc(Cl)cc3)n[nH]2)c(S)cc1Cl`, the concentration for half-maximal inhibition (IC50) in the series on MDA-MB-231 stood at 8.4 µM; in the series with MCF7, 7.4 µM.

Regarding `COc1ccc(Nc2n[nH]c(NS(=O)(=O)c3cc(C)c(Cl)cc3S)n2)cc1`, the selectivity ratio in series [1], in series [2] and in series [3] was over 65 in each case. Further, the IC50 in the series on MDA-MB-231 was 8.5 µM; with MCF7 it was 7.8 µM.

With `Cc1cc(S(=O)(=O)Nc2nc(Nc3cccc4ccccc34)n[nH]2)c(S)cc1Cl`, the selectivity ratio in series [1], in series [2] and in series [3] was over 65 each time. For the same compound, the half-inhibitory concentration (IC50) in the series with MDA-MB-231 amounted to 8.6 µM; in the series with MCF7, 7.5 µM.

Regarding `Cc1cc(S(=O)(=O)Nc2nc(Nc3ccc4cc(O)ccc4c3)n[nH]2)c(S)cc1Cl`, the selectivity ratio in series [1], in series [2] and in series [3] was over 65 in each case. Besides, the 50% inhibitory concentration (IC50) with MDA-MB-231 is 8.6 µM; in the series with MCF7 it was 7.5 µM.

Regarding `Cc1cc2c(cc1Cl)SC(/N=C(/N)Nc1cccc3ncccc13)=NS2(=O)=O`, the selectivity ratio in series [1], in series [2] and in series [3] was over 65 throughout. Further, the half-inhibitory concentration (IC50) was 5.4 µM with MDA-MB-231 and 3.6 µM in the series on MCF7.

As to `COc1ccc(Nc2n[nH]c(NS(=O)(=O)c3cc(C)c(Cl)cc3S)n2)c(OC)c1OC`, the selectivity ratio in series [1], in series [2] and in series [3] was over 65 throughout. For the same compound, the IC50 in the series with MDA-MB-231 is 7.7 µM; in the series on MCF7, 6.5 µM.

On to `COc1ccc2ccccc2c1Nc1n[nH]c(NS(=O)(=O)c2cc(C)c(Cl)cc2S)n1`, for which the selectivity ratio in series [1], in series [2] and in series [3] was over 65 in each case. The IC50 was determined as 8.5 µM with MDA-MB-231 and 7.7 µM in the series with MCF7.

Take `Cc1cc2c(cc1Cl)SC(/N=C(/N)Nc1ccc3ccccc3c1)=NS2(=O)=O`: the selectivity ratio in series [1], in series [2] and in series [3] was over 65 in each case. The concentration for half-maximal inhibition (IC50) was 5.8 µM with MDA-MB-231 and 3.5 µM in the series on MCF7.

As for `Cc1cc2c(cc1Cl)SC(/N=C(/N)Nc1ccc3cc(O)ccc3c1)=NS2(=O)=O`, the selectivity ratio in series [1], in series [2] and in series [3] was over 65 throughout. Moreover, the results for the IC50 in the series with MDA-MB-231 and in the series with MCF7 were 4.4 µM and 3.2 µM, respectively.

For the compound `COc1ccc(N/C(N)=N\C2=NS(=O)(=O)c3cc(C)c(Cl)cc3S2)cc1`, the selectivity ratio in series [1], in series [2] and in series [3] was over 65 in each case. Besides, the IC50 with MDA-MB-231 was 5.4 µM; in the series on MCF7, 3.3 µM.

As to `Cc1cc(S(=O)(=O)Nc2nc(Nc3ccnc4cc(Cl)ccc34)n[nH]2)c(S)cc1Cl`, the selectivity ratio in series [1], in series [2] and in series [3] was over 65 in each case. Besides, the figures for the IC50 in the series on MDA-MB-231 and in the series on MCF7 were 4.8 µM and 4 µM, respectively.

Take `COc1ccc2ccccc2c1N/C(N)=N\C1=NS(=O)(=O)c2cc(C)c(Cl)cc2S1`: the selectivity ratio in series [1], in series [2] and in series [3] was over 65 in each case. The IC50 with MDA-MB-231 was found to be 4.3 µM; in the series on MCF7, 3 µM.

Regarding `Cc1cc(S(=O)(=O)Nc2nc(Nc3cccc4ncccc34)n[nH]2)c(S)cc1Cl`, the selectivity ratio in series [1], in series [2] and in series [3] was over 65 throughout. Also, the half-maximal inhibitory concentration (IC50) was determined as 8.6 µM in the series with MDA-MB-231 and 7.2 µM in the series with MCF7.

Consider `Cc1cc2c(cc1Cl)SC(/N=C(/N)Nc1ccc(Cl)cc1)=NS2(=O)=O`, for which the selectivity ratio in series [1], in series [2] and in series [3] was over 65 each time. The IC50 was 6.6 µM in the series with MDA-MB-231 and 5.5 µM with MCF7.

As to `Cc1cc2c(cc1Cl)SC(/N=C(/N)Nc1ccc3ncccc3c1)=NS2(=O)=O`, the selectivity ratio in series [1], in series [2] and in series [3] was over 65 throughout. In addition, the IC50 is 5.8 µM in the series on MDA-MB-231 and 3.8 µM in the series on MCF7.

Turning to `Cc1cc2c(cc1Cl)SC(/N=C(/N)Nc1ccc3cnccc3c1)=NS2(=O)=O`, the selectivity ratio in series [1], in series [2] and in series [3] was over 65 in each case. For the same compound, the half-maximal inhibitory concentration (IC50) in the series on MDA-MB-231 amounted to 7.2 µM; in the series with MCF7 it was 5.4 µM.

Consider `COc1cc(N/C(N)=N\C2=NS(=O)(=O)c3cc(C)c(Cl)cc3S2)cc(OC)c1OC`, for which the selectivity ratio in series [1], in series [2] and in series [3] was over 65 in each case. Also, the IC50 with MDA-MB-231 is 4.1 µM; in the series with MCF7, 2.4 µM.

As to `Cc1cc(S(=O)(=O)Nc2nc(Nc3cnc4ccccc4c3)n[nH]2)c(S)cc1Cl`, the selectivity ratio in series [1], in series [2] and in series [3] was over 65 throughout. Further, the values for the 50% inhibitory concentration (IC50) in the series with MDA-MB-231 and with MCF7 were 8.6 µM and 7.8 µM, respectively.

In the case of `Cc1cc(S(=O)(=O)Nc2nc(Nc3cccc4cnccc34)n[nH]2)c(S)cc1Cl`, the selectivity ratio in series [1], in series [2] and in series [3] was over 65 each time. Also, the IC50 with MDA-MB-231 is 8.7 µM; in the series on MCF7 it was 7.4 µM.

Regarding `Cc1cc(S(=O)(=O)Nc2nc(Nc3ccc4ncccc4c3)n[nH]2)c(S)cc1Cl`, the selectivity ratio in series [1], in series [2] and in series [3] was over 65 throughout. Also, the values for the half-maximal inhibitory concentration (IC50) with MDA-MB-231 and in the series on MCF7 were 8.2 µM and 7.1 µM, respectively.

For `Cc1cc(S(=O)(=O)Nc2nc(Nc3cccc4cccnc34)n[nH]2)c(S)cc1Cl`, the selectivity ratio in series [1], in series [2] and in series [3] was over 65 each time. Also, the IC50 with MDA-MB-231 came to 8.8 µM; in the series with MCF7, 8.2 µM.

With `Cc1cc(S(=O)(=O)Nc2nc(Nc3ccc4cnccc4c3)n[nH]2)c(S)cc1Cl`, the selectivity ratio in series [1], in series [2] and in series [3] was over 65 throughout. Moreover, the half-maximal inhibitory concentration (IC50) in the series on MDA-MB-231 was 8.2 µM; in the series with MCF7, 7.6 µM.

Regarding `Cc1cc(S(=O)(=O)Nc2nc(Nc3ccc(Br)cc3)n[nH]2)c(S)cc1Cl`, the selectivity ratio in series [1], in series [2] and in series [3] was over 65 throughout. The IC50 in the series with MDA-MB-231 was determined as 3.9 µM; in the series on MCF7, 3.1 µM.

For the compound `COc1cc2nccc(Nc3n[nH]c(NS(=O)(=O)c4cc(C)c(Cl)cc4S)n3)c2cc1OC`, the selectivity ratio in series [1], in series [2] and in series [3] was over 65 in each case. For the same compound, the IC50 with MDA-MB-231 is 9.2 µM; in the series with MCF7, 8.4 µM.

`Cc1cc2c(cc1Cl)SC(/N=C(/N)Nc1cccc3cccnc13)=NS2(=O)=O`: the selectivity ratio in series [1], in series [2] and in series [3] was over 65 throughout. The IC50 with MDA-MB-231 was 5.6 µM; with MCF7, 3.6 µM.
